Reference: patent US20250270172A1, “Pyrimidine Derivatives As Modulators of the 5-HT2A Serotonin Receptor Useful For The Treatment of Disorders Related Thereto” (Arena Pharmaceuticals, Inc., priority 2020, published 2025)
pKi: −log10 of the molar value.

Molecular target: 5-HT2A (Homo sapiens (Human), UniProt P28223)
Experiment: Radioligand binding assay, [^3H]5-HT competition, 5-HT2A
Settings: [^3H]5-HT radioligand, membranes of HEK293 cells expressing recombinant 5-HT2A; Ki from IC50 by Cheng-Prusoff; read-out: 5-HT2A serotonin binding Ki value

Chain of 5-HT2A (P28223 whole entry): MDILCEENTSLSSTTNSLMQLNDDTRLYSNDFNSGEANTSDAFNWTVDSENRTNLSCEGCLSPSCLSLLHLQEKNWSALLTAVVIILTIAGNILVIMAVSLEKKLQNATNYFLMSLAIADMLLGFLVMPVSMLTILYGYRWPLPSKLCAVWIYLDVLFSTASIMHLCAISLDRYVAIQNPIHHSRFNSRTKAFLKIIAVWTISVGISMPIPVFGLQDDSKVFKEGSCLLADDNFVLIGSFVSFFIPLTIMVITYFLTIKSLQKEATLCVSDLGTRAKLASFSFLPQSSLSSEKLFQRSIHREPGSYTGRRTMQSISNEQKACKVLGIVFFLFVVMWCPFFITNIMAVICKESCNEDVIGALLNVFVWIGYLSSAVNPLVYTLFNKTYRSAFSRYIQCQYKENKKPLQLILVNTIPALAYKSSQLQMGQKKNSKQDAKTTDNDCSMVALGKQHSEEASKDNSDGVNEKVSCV

Row | Compound | pKi
1 | Cc1ncnc(C)c1-c1cc(NC(=O)c2ccn(C)c2)ccc1OCCN1CCCC1 [Compound 201, N-(3-(4,6-dimethylpyrimidin-5-yl)-4-(2-(pyrrolidin-1-yl)ethoxy)phenyl)-1-methyl-1H-pyrrole-3-carboxamide] | 7.48
2 | Cc1ncnc(C)c1-c1cc(NC(=O)c2ccn(C)n2)ccc1OCCN1CCCC1 [Compound 203, N-(3-(4,6-dimethylpyrimidin-5-yl)-4-(2-(pyrrolidin-1-yl)ethoxy)phenyl)-1-methyl-1H-pyrazole-3-carboxamide] | 6.11
3 | Cc1cc(C(=O)Nc2ccc(OCCN3CCCC3)c(-c3c(C)ncnc3C)c2)co1 [Compound 204, N-(3-(4,6-dimethylpyrimidin-5-yl)-4-(2-(pyrrolidin-1-yl)ethoxy)phenyl)-5-methylfuran-3-carboxamide] | 7.88
4 | CCc1cc(C(=O)Nc2ccc(OCCN3CCCC3)c(-c3c(C)ncnc3C)c2)[nH]n1 [Compound 205, N-(3-(4,6-dimethylpyrimidin-5-yl)-4-(2-(pyrrolidin-1-yl)ethoxy)phenyl)-3-ethyl-1H-pyrazole-5-carboxamide] | 7.98
5 | Cc1ncnc(C)c1-c1cc(NC(=O)c2cc(C(C)C)n[nH]2)ccc1OCCN1CCCC1 [Compound 206, N-(3-(4,6-dimethylpyrimidin-5-yl)-4-(2-(pyrrolidin-1-yl)ethoxy)phenyl)-3-isopropyl-1H-pyrazole-5-carboxamide] | 8.19
6 | Cc1ncnc(C)c1-c1cc(NC(=O)c2cncc(F)c2)ccc1OCCN1CCCC1 [Compound 207, N-(3-(4,6-dimethylpyrimidin-5-yl)-4-(2-(pyrrolidin-1-yl)ethoxy)phenyl)-5-fluoronicotinamide] | 7.35
7 | COc1cncc(C(=O)Nc2ccc(OCCN3CCCC3)c(-c3c(C)ncnc3C)c2)c1 [Compound 208, N-(3-(4,6-dimethylpyrimidin-5-yl)-4-(2-(pyrrolidin-1-yl)ethoxy)phenyl)-5-methoxynicotinamide] | 7.65
8 | Cc1ncnc(C)c1-c1cc(NC(=O)c2ccc(F)cn2)ccc1OCCN1CCCC1 [Compound 210, N-(3-(4,6-dimethylpyrimidin-5-yl)-4-(2-(pyrrolidin-1-yl)ethoxy)phenyl)-5-fluoropicolinamide] | 6.87
9 | Cc1ncnc(C)c1-c1cc(NC(=O)[C@@H]2C[C@H]2F)ccc1OCCN1CCCC1 [Compound 211, (1S,2R)—N-(3-(4,6-dimethylpyrimidin-5-yl)-4-(2-(pyrrolidin-1-yl)ethoxy)phenyl)-2-fluorocyclopropane-1-carboxamide] | 8.68
10 | Cc1ncnc(C)c1-c1cc(NC(=O)[C@H]2C[C@H]2F)ccc1OCCN1CCCC1 [Compound 212, (1R,2R)—N-(3-(4,6-dimethylpyrimidin-5-yl)-4-(2-(pyrrolidin-1-yl)ethoxy)phenyl)-2-fluorocyclopropane-1-carboxamide] | 8.25
11 | Cc1ncnc(C)c1-c1cc(NC(=O)[C@@H]2C[C@@H]2F)ccc1OCCN1CCCC1 [Compound 213, (1S,2S)—N-(3-(4,6-dimethylpyrimidin-5-yl)-4-(2-(pyrrolidin-1-yl)ethoxy)phenyl)-2-fluorocyclopropane-1-carboxamide] | 8.34
12 | Cc1nc(C)c(C(=O)Nc2ccc(OCCN3CCCC3)c(-c3c(C)ncnc3C)c2)s1 [Compound 215, N-(3-(4,6-dimethylpyrimidin-5-yl)-4-(2-(pyrrolidin-1-yl)ethoxy)phenyl)-2,4-dimethylthiazole-5-carboxamide] | 7.80
13 | Cc1cnoc1C(=O)Nc1ccc(OCCN2CCCC2)c(-c2c(C)ncnc2C)c1 [Compound 216, N-(3-(4,6-dimethylpyrimidin-5-yl)-4-(2-(pyrrolidin-1-yl)ethoxy)phenyl)-4-methylisoxazole-5-carboxamide] | 7.78
14 | Cc1ncnc(C)c1-c1cc(NC(=O)c2cnoc2)ccc1OCCN1CCCC1 [Compound 218, N-(3-(4,6-dimethylpyrimidin-5-yl)-4-(2-(pyrrolidin-1-yl)ethoxy)phenyl)isoxazole-4-carboxamide] | 5.82
15 | Cc1nocc1C(=O)Nc1ccc(OCCN2CCCC2)c(-c2c(C)ncnc2C)c1 [Compound 219] | 8.19
